Reference: patent US9365851B2, “Spalt-like transcription factor 4 (SALL4) and uses thereof” (National University of Singapore, priority 2011, dated 2016)

What was measured:
[1] = test system: SALL4 interaction with HDAC1; assay: Co-immunoprecipitation of endogenous SALL4 with HDAC1 after peptide treatment (SNU-398); format: binding, human; conditions: SNU-398, anti-SALL4 IP
Description: (§1) FIGS. 9A-9E: The wild type peptide blocks SALL4 repression of PTEN. (9A) Flow cytometry analysis on SNU-398 cells treated with Pep-1 carrier peptide alone (top panel), wild type peptide alone (middle panel), or Pep-1 carrier+peptide (lower panel). […] (9B) Confocal images of the distribution of FITC-labeled peptide in SNU-398 cells treated as shown in (9A). (9C) The endogenous SALL4 interaction with HDAC is blocked by wild type (wt) but not scrambled (scr) peptide. SALL4 was immunoprecipitated from SNU-398 nuclear extracts (1×10^6 cells) pre-treated with wild type or scrambled peptides as indicated using an anti-SALL4 antibody. Immunoprecipitates were analyzed by Western blot using HDAC1 (top panel) or SALL4 (lower panel) antibodies. […] Equal amount of SALL4 protein was present in all samples. In Lane 4 (“10% input”), 10% of the amount of nuclear extract used in lanes 1-3 was subjected to Western blot analysis without immunoprecipitation. […] Enrichment with control IgG was set at 1.
Furthermore, whether wt peptide can compete with endogenous SALL4 in interacting with HDAC1 was tested. SNU-398 cells were treated with wt or Scr peptides. […] This effect was not observed with the SNU-398 cells treated with Scr peptide and HDAC1 was still present in the endogenous SALL4 pull-down (FIG. 2).
Next tested was whether wild type peptide could compete for the interaction of endogenous SALL4 with HDAC1. SNU-398 cells were treated with wild type or scrambled peptides along with the peptide carrier Pep-1.

[2] = test system: PTEN promoter region; assay: ChIP-qPCR of H3 acetylation at the PTEN promoter in SNU-398 cells; format: cell-based, human; conditions: SNU-398, ChIP-qPCR
Description: as §1
Whether this peptide can reverse the repressive effect of SALL4 on its target genes was then tested. Pten was chosen as an example since it is one of genes implicated in SALL4-mediated leukemogenesis. In addition, it was previously reported that SALL4 and NuRD component HDAC2 shared the same binding site at a specific Pten promoter region identified by a ChIP assay. When SALL4 was overexpressed in 293T cells, an enrichment of SALL4 as well as HDAC2 but a decreased H3 acetylation at this binding site were observed, which was correlated with a decreased Pten mRNA expression. It is likely that SALL4 recruits the NuRD complex in repressing Pten expression. If this model of the role of wt peptide is correct, then it could compete with endogenous SALL4 in recruiting NuRD to the binding site on Pten promoter. […] SNU-398 cells were treated with Scr or wt peptide and then evaluated for the Pten mRNA expression, as well as the status of HDAC2 binding and H3 acetylation at the Pten promoter region.
Then tested was whether this peptide could reverse the repressive effect of SALL4 on its target genes. The focus was onPTEN, since it is implicated in SALL4-mediated leukemogenesis (Yang et al., Blood, 112:805-813 (2008); Lu et al., PLoS One, 4:e5577 (2009)). In addition, it was previously reported that SALL4 could specifically bind to the PTEN promoter region in a chromatin immunoprecipitation (ChIP) assay (Lu et al., PLoS One, 4:e5577 (2009)). […] To test this possibility, SNU-398 cells were treated with scrambled or wild type peptide and subsequently evaluated for PTEN expression and H3 acetylation at the SALL4 binding site at the PTEN promoter region. […]

[3] = test system: KBM5 cells; assay: MTS cell viability assay; format: cell-based; conditions: KBM5 (no SALL4), 72 h
Protocol: (§2) Multiple leukemic and solid tumor cancer cell lines with high or low/no SALL4 expression (FIG. 10A) were chosen to test the biological effect(s) of the wild type peptide. Wild type or scrambled peptide was delivered into tumor cells at various concentrations, and their effects on cells were evaluated 72 hours post-treatment by the MTS cell viability assay. […] The effect of wild type peptide is SALL4-specific, as it had no effect on KBM5, an AML cell line with undetectable endogenous SALL4 expression. We were surprised to see that the wild type peptide had no effect on a high SALL4-expressing endometrioid cancer cell line, AN3CA. This prompted checking whether PTEN, a gene repressed by SALL4 through its interaction with NuRD 27, was present in this cell line. According to the model herein, the function of wild type peptide requires both the expression of SALL4 and intact SALL4 downstream target genes, such as PTEN. In tumor cells with PTEN deletion, even though wild type peptide could compete with endogenous SALL4 in interacting with the HDAC complex, an anti-proliferative effect might not be observed. Therefore, expression of PTEN was evaluated in AN3CA cells along with other cell lines. While PTEN protein was present in all the other cell lines, it was absent in AN3CA cells (FIG. 10C), with reported deletion mutation of the gene in this cell line 40,41. […] Furthermore, the anti-proliferative effect also required certain downstream targets, such as PTEN.
(§3) To further test whether the effect of wild type peptide on tumor cells is related to PTEN, a PTEN inhibitor (SF1670) was used (Li et al., Blood, 117:6702-6713). […] As a control for the specificity of SALL4, KBM5, a non-SALL4-expressing cell line was also treated with PTEN inhibitor.

[4] = test system: THP1 cells; assay: MTS cell viability assay; format: cell-based; conditions: THP1, 72 h
Protocol: as §2, §3

| Substance | interaction of endogenous SALL4 with HDAC1 [1] | interaction of endogenous SALL4 with HDAC1 ([1]; listed as scrambled peptide) | H3 acetylation at the PTEN promoter region [2] | cell viability [3] | cell viability [4] | H3 acetylation at the PTEN promoter region ([2]; listed as Wild type peptide) | H3 acetylation at the PTEN promoter region ([2]; listed as Wt) | H3 acetylation at the PTEN promoter region ([2]; listed as wild type peptide) | cell viability ([3]; listed as wild type) | cell viability ([3]; listed as wild type peptide) |
| --- | --- | --- | --- | --- | --- | --- | --- | --- | --- | --- |
| Scr peptide: same 12 amino acids as the wt peptide, but in a scrambled sequence; negative control (SRMRQKIHPKIQ) [reference compound] | not observed | does not affect the interaction | not observed | no change in cell viability | remained unaffected |  |  |  |  |  |
| H-MSRRKQAKPQHI-OH [wt peptide, MSRRKQAKPQHI] | completely abrogated |  |  |  | decreased cell viability | increased H3 acetylation | increased H3 acetylation | increased H3 acetylation markers | no change in cell viability | had no effect |
